Source: US11180495B2 (Abbisko Therapeutics Co., Ltd., priority 2017, dated 2021)
Read-outs that look alike come from different tables or passages of the source.

Assays:
[1] = tested on: M-NFS-60 mouse myeloid leukemia lymphocytes; test: CSF-1R-related cell proliferation experiment (Cell Titer Glo); type: cell-based; details: 72 h, M-NFS-60 cells, 3 days, CTG
Description: Functional effects of compounds on cell proliferation were evaluated by using Cell Titer Glo (CTG) study in the present invention. M-NFS-60 mouse myeloid leukemia lymphocytes (cat. No. CCBJ078) from National Institutes For Food and Drug Control were cultured in the incubator under conditions of RPMI 1640 (Gibco, cat. No. 11875-119), 10% fetal bovine serum (Gibco, 10099-141), human 10 ng/mL M-CSF macrophage colony-stimulating factor (R&D, cat. No. MVN0915101), 37° C. and 5% CO2. Since ATP is an index for viable cell metabolism, CTG (Promega, #G7573) reagent is a homogeneous detection method for detecting the number of viable cells in the culture by quantifying ATP. Therefore, compound-mediated inhibition for cell proliferation/survival was evaluated by quantifying ATP in cells, and the specific experimental process was as follows: • 1. The cells were plated into a tissue-culture-medium-treated 96-well plate (Costar #3904) with 5,000 cells/well/80 μL fresh culture medium: • 2. 24 hours later, 10 μL culture medium containing testing compound with 10-fold of final concentration was added to each well; • 3. 10 μL of culture medium containing M-CSF with 10-fold of the final concentration was then added to each well: • 4. dosage effect was evaluated by testing the 3-fold serial dilutions of the compound; • 5. after the cells were incubated for 3 days at 37° C. and 5% CO2, the inhibition on cell survival was quantified after 50 μL of CTG was added and the luminescence assay was performed; • 6. the compound concentration leading to half maximal inhibitory (IC50) and the compound concentration leading to absolute half maximal inhibitory (Absolute IC50) were measured by a plate reader (M1000, Tecan) and a four-parameter curve fit in Graphpad Prism 7. D. CSF-1R-Related Cell Proliferation Experiment

[2] = biological target: T1, CSF-1R (Homo sapiens, UniProt P07333); test: CSF-1R in vitro biochemical kinase study (ADP-Glo assay); details: 3.95 nM CSF-1R, 500 μM ATP, 30° C. 60 min, read-out: Enzymatic experiment CSF-1R IC50
T1 construct: 3.95 nM of CSF-1R, 500 μM of ATP and 0.2 mg/mL of polypeptide
T1 sequence (P07333 20-972): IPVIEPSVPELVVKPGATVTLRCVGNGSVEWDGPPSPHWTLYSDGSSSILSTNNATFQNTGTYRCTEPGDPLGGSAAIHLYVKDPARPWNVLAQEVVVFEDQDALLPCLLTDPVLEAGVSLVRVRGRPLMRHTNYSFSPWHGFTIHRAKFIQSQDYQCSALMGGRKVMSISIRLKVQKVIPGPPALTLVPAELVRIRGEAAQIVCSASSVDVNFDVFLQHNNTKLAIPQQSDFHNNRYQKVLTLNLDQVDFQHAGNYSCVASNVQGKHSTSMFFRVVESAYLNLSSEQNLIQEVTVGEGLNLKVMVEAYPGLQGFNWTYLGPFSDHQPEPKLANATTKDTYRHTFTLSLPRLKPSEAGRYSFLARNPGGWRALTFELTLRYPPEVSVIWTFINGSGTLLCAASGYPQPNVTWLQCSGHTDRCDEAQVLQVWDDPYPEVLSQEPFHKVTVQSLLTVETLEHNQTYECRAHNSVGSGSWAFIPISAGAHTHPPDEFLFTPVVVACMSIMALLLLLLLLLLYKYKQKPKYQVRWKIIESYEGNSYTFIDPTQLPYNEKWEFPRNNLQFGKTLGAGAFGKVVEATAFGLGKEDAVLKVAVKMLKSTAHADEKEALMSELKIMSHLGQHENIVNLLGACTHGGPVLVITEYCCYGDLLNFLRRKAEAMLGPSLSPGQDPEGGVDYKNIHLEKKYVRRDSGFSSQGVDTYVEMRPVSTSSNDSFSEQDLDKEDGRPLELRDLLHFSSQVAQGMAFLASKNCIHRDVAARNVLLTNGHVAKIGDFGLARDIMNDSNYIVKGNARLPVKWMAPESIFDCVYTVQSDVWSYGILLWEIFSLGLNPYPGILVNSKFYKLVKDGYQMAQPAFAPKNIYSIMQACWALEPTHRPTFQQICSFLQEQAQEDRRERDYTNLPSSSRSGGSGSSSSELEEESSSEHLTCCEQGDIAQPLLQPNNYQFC
Description: In the present invention, the inhibitory activity of compounds against the CSF-1R activity was determined by using CSF-1R ADP-Glo assay. The compound-mediated inhibition effect was achieved by inhibiting the production of ADP from consumption of ATP, and the activities of compounds were evaluated by using the ADP-Glo kit (Promega, cat. No. V9101). The specific experimental process was as follows: • 1. The kinase reaction performed in the present invention was carried out in a 384-well plate (Perkinelmer, cat. No. 6007290), and 3.95 nM of CSF-1R, 500 μM of ATP and 0.2 mg/mL of polypeptide (Poly (Glu4, Try1), Sigma, cat. No. P0275) were respectively weighed and added to each well: • 2. following reagents were then added to each well to reach the final reaction system: 40 mM Tris, pH 7.5, 20 mM MgCl2, 0.01% Triton X-100, 0.1 mg/mL BSA, 2.5 mM DTT and 0.1% DMSO; • 3. the reaction was conducted at 30° C. for 60 min; • 4. then an equal volume of stop solution (ADP-Glo) was added to the kinase reaction system; • 5. the mixed solution was incubated at 25° C. for 60 min, and the kinase reaction was then terminated; • 6. a two-fold volume of detection reagent was then added to each well; • 7. the mixed solution was incubated at 25° C. for 30 min; • 8. the compound IC50 value was measured by using a plate reader (Tecan, M1000) and a four-parameter curve was generated in Graphpad Prism. B. KIT/PDGFRA In Vitro Biochemical Kinase Study • 1. Preparation of 1-fold kinase buffer and stop solution • 1.1 1-fold kinase buffer: 50 mM HEPES, pH 7.5, 0.0015% Brij-35. • 1.2 stop solution: 100 mM HEPES, pH 7.5, 0.015% Brij-35, 0.2% Coating Reagent #3 50 mM EDTA • 2. Preparation of compound solution • 2.1 Dilution of compound solution • 1) The final concentration of the compound solution was 40 μM. and the concentration of the prepared stock solution was 50 times of the final concentration, i.e., 2 mM. • 2) 80 μL of 100% DMSO was added to the second well of the 96-well plate, then 20 μL of 10 mM compound solution was added, and thereby 2 mM compound solution was prepared, 60 μL of 100% DMSO was added to other wells, 20 μL of compound was taken from the second well, added to the third well and diluted by 4 times. This serial 4-time dilution was conducted in sequence for the total of 10 concentrations. • 2.2 5-fold compound solution transferred to a reaction plate • 1) 10 μL of solution was taken from each well of the above 96-well plate and added to another 96-well plate, and 90 μL of kinase buffer was added. • 2) 5 μL of solution was taken from the above 96-well plate and added to a 384-well reaction plate. • 2.3 Kinase reaction • 1) KIT/PDGFRA kinase was added to the 1-fold kinase buffer solution to obtain a 2.5-fold kinase solution. • 2) FAM-labeled polypeptide and ATP were added to the 1-fold kinase buffer solution to obtain a 2.5-fold substrate solution. • 3) 10 μL of 2.5-fold kinase solution was added to the 384-well reaction plate, which already contained 5 μL of 5-fold compound in 10% DMSO. And the mixed solution was incubated at room temperature for 10 min. • 4) 10 μL of 2.5-fold substrate solution was added to the 384-well reaction plate. • 5) Kinase reaction and termination: the mixed solution was incubated at 28° C. for a certain period of time, and 25 μL of stop solution was added to stop the reaction. • 2.4 Data reading of Caliper EZ Reader II • 2.5 Calculation of percent inhibition and IC50 • 1) Percent conversion data were copied from the Caliper EZ Reader. • 2) Percent conversion was converted into percent inhibition data, wherein, max referred to percent conversion of the DMSO control, and min referred to percent conversion of the negative control without kinase activity. Percent inhibition=(max−conversion)/(max−min)*100. • 3) The IC50 value was fitted with XLFit excel add-in version 5.4.0.8: Fitting formula: Y=Bottom+(Top−Bottom)/(1+(IC50/X)^HillSlope).

[3] = tested on: MV-4-11 human acute monocytic leukemia cells; test: FLT3-related cell proliferation experiment (Cell Titer Glo); type: cell-based; details: MV4-11, 72 h, MV-4-11 cells, 3 days, CTG, read-out: Cytological experiment FLT3 IC50
Description: (§1) Functional effects of compounds on the proliferation of several cell lines were evaluated by Cell Titer Glo (CTG) studies in the present invention, and effects of the compounds on the proliferation of different cells were evaluated to determine the selectivity degree of the compounds. In the study, M-07e human cytomegalic leukemia cells (cat. No. CBP60791) from Nanjing Kebai Biotechnology Co., Ltd. were cultured in an incubator under conditions of RPMI1640 (Gibco, cat. No. 11875-119), 20% fetal bovine serum (Gibco, 10099-141), human 10 ng/mL GM-CSF granulocyte macrophage colony-stimulating factors (R&D, cat. No. 215-GM-010), 37° C. and 5% CO2; and Kasumi-1 human acute myeloblastic leukemia cells (cat. No. CBP60524) were cultured in an incubator under conditions of RPMI1640 (Gibco, cat. No. 11875-119), 20% fetal bovine serum (Gibco, 10099-141), 37° C. and 5% CO2; NCI-H1703 human non-small cell lung squamous carcinoma cells (cat. No. CBP60115) were cultured in an incubator under conditions of RPMI1640 (Gibco, cat. No. 11875-119), 10% fetal bovine serum (Gibco, 10099-141), 37° C. and 5% CO2; and MV-4-11 human acute monocytic leukemia cells (cat. No. CBP60522) were cultured in an incubator under conditions of IMDM (Invitrogen, cat. No. 12440053), 20% fetal bovine serum (Gibco, 10099-141), 37° C. and 5% CO2. Since ATP is an index for viable cell metabolism, CTG (Promega, #G7573) reagent is a homogeneous detection method for detecting the number of viable cells in the culture by quantifying ATP. Therefore, compound-mediated inhibition for cell proliferation/survival was evaluated by quantifying ATP content in cells, and the specific experimental process was as follows.
III) MV-4-11 Human Acute Monocytic Leukemia Cell • 1.

[4] = tested on: NCI-H1703 human non-small cell lung squamous carcinoma cells; test: PDGFRA-related cell proliferation experiment (Cell Titer Glo); type: cell-based; details: 72 h, 3 days, CTG, read-out: Cytological experiment PDGFRA IC50
Description: as §1
II) NCI-H1703 Human Non-Small Cell Lung Squamous Carcinoma Cell • 1.

[5] = tested on: M-07e human cytomegalic leukemia cells; test: KIT-related cell proliferation experiment (Cell Titer Glo); type: cell-based; details: 72 h, M-07e cells, SCF, 3 days, CTG, read-out: Cytological experiment KIT IC50
Description: as §1
I) M-07e Human Cytomegalic Leukemia Cell: • 1. The cells were plated into a tissue-culture-medium-treated 96-well plate (Costar #3904) with 3500 cells/well/80 μL fresh culture medium, and cultured for 24 hrs; • 2. the next day, 10 μL of culture medium containing testing compound with 10-fold of final concentration was added to each well; • 3.

[6] = absolute half maximal inhibitory concentration, read-out: Cytological experiment CSF-1R Absolute IC50
[7] = read-out: Cytological experiment CSF1R IC50

IC50 [1, 6] [nM]	IC50 [1, 7] [nM]	IC50 [2] [nM]	IC50 [3] [nM]	IC50 [4] [nM]	IC50 [5] [nM]	Compound
39.9	215	19.3	–	–	–	CC(C)Nc1ncc(-c2ccc(Cc3c[nH]c4ncccc34)cn2)c(=O)[nH]1 [Example 2, 5-(5-((1H-pyrrolo[2,3-b]pyridin-3-yl)methyl)pyridin-2-yl)-2-(isopropylamino)pyrimidin-4(3H)-one]
210	235	36.4	–	–	–	Cc1nc(-c2cnc(NC(C)C)[nH]c2=O)ccc1Cc1c[nH]c2ncc(OCCO)cc12 [Example 4, 5-(5-((5-(2-hydroxyethoxy)-1H-pyrrolo[2,3-b]pyridin-3-yl)methyl)-6-methylpyridin-2-yl)-2-(isopropylamino)pyrimidin-4(3H)-one]
296	315	289	–	–	–	Cc1nc(-c2cnc(NC(C)C)n(C)c2=O)ccc1C(C)c1c[nH]c2ncc(Cl)cc12 (stereo not drawn) [Example 12, 5-(5-(1-(5-chloro-1H-pyrrolo[2,3-b]pyridin-3-yl)ethyl)-6-methylpyridin-2-yl)-2-(isopropylamino)-3-methylpyrimidin-4(3H)-one]
–	–	73.4	–	–	–	Cc1nc(-c2cnc(NC(C)C)n(C)c2=O)ccc1C(=O)c1c[nH]c2ncc(Cl)cc12 [Example 11, 5-(5-(5-chloro-1H-pyrrolo[2,3-b]pyridine-3-carbonyl)-6-methylpyridin-2-yl)-2-(isopropylamino)-3-methylpyrimidin-4(3H)-one]
622	553	48.1	–	–	–	Cc1nc(-n2ccc3c(ncn3C(C)C)c2=O)ccc1Cc1c[nH]c2ncc(Cl)cc12 [Example 25, 5-(5-((5-chloro-1H-pyrrolo[2,3-b]pyridin-3-yl)methyl)-6-methylpyridin-2-yl)-1-isopropyl-1,5-dihydro-4H-imidazo[4,5-c]pyridin-4-one]
–	–	88.1	–	–	–	Cc1nc(-c2cnc(NC(C)C)[nH]c2=O)ccc1C(=O)c1c[nH]c2ncccc12 [Example 6, 2-(isopropylamino)-5-(6-methyl-5-(1H-pyrrolo[2,3-b]pyridine-3-carbonyl)pyridin-2-yl)pyrimidin-4(3H)-one]
–	–	331	–	–	–	COC(c1ccc(-c2cnc(NC(C)C)n(C)c2=O)nc1C)c1c[nH]c2ncc(Cl)cc12 (stereo not drawn) [Example 8, 5-(5-((5-chloro-1H-pyrrolo[2,3-b]pyridin-3-yl)(methoxy)methyl)-6-methylpyridin-2-yl)-2-(isopropylamino)-3-methylpyrimidin-4(3H)-one]
56.4	67.4	–	3040	3540	978	CCN1CCCn2c1ncc(-c1ccc(Cc3c[nH]c4ncccc34)c(C)n1)c2=O [Example 19, 3-(5-((1H-pyrrolo[2,3-b]pyridin-3-yl)methyl)-6-methylpyridin-2-yl)-9-ethyl-6,7,8,9-tetrahydro-4H-pyrimido[1,2-a]pyrimidin-4-one]
–	–	315	–	–	–	Cc1nc(-c2cnc(NC(C)C)n(C)c2=O)ccc1C(O)c1c[nH]c2ncc(Cl)cc12 (stereo not drawn) [Example 9, 5-(5-((5-chloro-1H-pyrrolo[2,3-b]pyridin-3-yl)(hydroxy)methyl)-6-methylpyridin-2-yl)-2-(isopropylamino)-3-methylpyrimidin-4(3H)-one]
47.4	50.8	39.1	–	–	–	COCCOc1cnc2[nH]cc(Cc3ccc(-c4cnc(NC(C)C)[nH]c4=O)nc3C)c2c1 [Example 3, 2-(isopropylamino)-5-(5-((5-(2-methoxyethoxy)-1H-pyrrolo[2,3-b]pyridin-3-yl)methyl)-6-methylpyridin-2-yl)pyrimidin-4(3H)-one]
703	534	168	–	–	–	Cc1nc(-c2cnc3n(c2=O)CCCN3C)ccc1C(=O)c1c[nH]c2ncccc12 [Example 24, 9-methyl-3-(6-methyl-5-(1H-pyrrolo[2,3-b]pyridine-3-carbonyl)pyridin-2-yl)-6,7,8,9-tetrahydro-4H-pyrimido[1,2-a]pyrimidin-4-one]
